In the kinase profiling compilation of Christmann-Franck et al. (2016):

Legend:
Experiment in all cases: KINOMEscan competition binding
Conditions in all cases: compound 10.0 µM
CDK17 (human) = CDK17 (human) (UniProt Q00537)
PIM2 (human) = PIM2 (human) (UniProt Q9P1W9)
PAK1 (human) = PAK1 (human) (UniProt Q13153)
EPHB4 (human) = EPHB4 (human) (UniProt P54760)
SRPK2 (human) = SRPK2 (human) (UniProt P78362)
FES (human) = FES (human) (UniProt P07332)
SGK3 (human) = SGK3 (human) (UniProt Q96BR1)
NTRK2 (human) = NTRK2 (human) (UniProt Q16620)
ABL2 (human) = ABL2 (human) (UniProt P42684)
FGFR3 (human) = FGFR3 (human) (UniProt P22607)
CDC42BPG (human) = CDC42BPG (human) (UniProt Q6DT37)
PRKCI (human) = PRKCI (human) (UniProt P41743)
SGK110 (human) = SGK110 (human) (UniProt P0C264)
EPHA2 (human) = EPHA2 (human) (UniProt P29317)
MAP2K1 (human) = MAP2K1 (human) (UniProt Q02750)
PDGFRB (human) = PDGFRB (human) (UniProt P09619)
CDK8 (human) = CDK8 (human) (UniProt P49336)
CDK13 (human) = CDK13 (human) (UniProt Q14004)
EPHA1 (human) = EPHA1 (human) (UniProt P21709)
CPK1 (P.falciparum) = test system: CPK1 (P.falciparum)
STK17B (human) = STK17B (human) (UniProt O94768)
IKBKB (human) = IKBKB (human) (UniProt O14920)
IGF1R (human) = IGF1R (human) (UniProt P08069)
CRK2 (P.falciparum) = CRK2 (P.falciparum) (UniProt P61075)
KDR (human) = KDR (human) (UniProt P35968)
CSK (human) = CSK (human) (UniProt P41240)
CDKL1 (human) = CDKL1 (human) (UniProt Q00532)
PIM3 (human) = PIM3 (human) (UniProt Q86V86)
CDK9 (human) = CDK9 (human) (UniProt P50750)
CDK18 (human) = CDK18 (human) (UniProt Q07002)
EPHA4 (human) = EPHA4 (human) (UniProt P54764)
ADCK4 (human) = ADCK4 (human) (UniProt Q96D53)
BMPR2 (human) = BMPR2 (human) (UniProt Q13873)
ITK (human) = ITK (human) (UniProt Q08881)
STK33 (human) = STK33 (human) (UniProt Q9BYT3)
LIMK1 (human) = LIMK1 (human) (UniProt P53667)
PLK4 (human) = PLK4 (human) (UniProt O00444)
[1] = test system: FGFR3 (human), P22607 [G697C]
PRKACB (human) = PRKACB (human) (UniProt P22694)
TEC (human) = TEC (human) (UniProt P42680)
STK3 (human) = STK3 (human) (UniProt Q13188)

Chain of SRPK2 (human) (P78362 whole entry, looked up): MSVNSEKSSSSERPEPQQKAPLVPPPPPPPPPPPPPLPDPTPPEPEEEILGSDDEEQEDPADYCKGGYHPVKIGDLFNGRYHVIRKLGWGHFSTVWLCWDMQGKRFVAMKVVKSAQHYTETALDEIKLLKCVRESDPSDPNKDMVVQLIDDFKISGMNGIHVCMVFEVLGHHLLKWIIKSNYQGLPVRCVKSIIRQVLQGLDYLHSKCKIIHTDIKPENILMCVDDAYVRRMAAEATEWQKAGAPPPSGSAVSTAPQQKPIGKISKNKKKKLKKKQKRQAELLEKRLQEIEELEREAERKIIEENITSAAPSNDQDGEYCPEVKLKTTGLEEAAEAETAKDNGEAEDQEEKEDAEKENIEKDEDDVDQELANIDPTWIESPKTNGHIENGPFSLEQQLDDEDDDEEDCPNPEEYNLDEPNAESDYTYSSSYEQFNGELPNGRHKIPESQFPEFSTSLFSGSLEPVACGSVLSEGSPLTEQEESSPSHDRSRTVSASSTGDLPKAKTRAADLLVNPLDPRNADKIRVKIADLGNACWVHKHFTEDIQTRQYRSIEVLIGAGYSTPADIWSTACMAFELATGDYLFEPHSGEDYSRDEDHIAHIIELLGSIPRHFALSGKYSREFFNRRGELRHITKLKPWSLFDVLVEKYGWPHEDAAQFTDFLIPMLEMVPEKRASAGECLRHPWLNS
Chain of PLK4 (human) (O00444 whole entry, looked up): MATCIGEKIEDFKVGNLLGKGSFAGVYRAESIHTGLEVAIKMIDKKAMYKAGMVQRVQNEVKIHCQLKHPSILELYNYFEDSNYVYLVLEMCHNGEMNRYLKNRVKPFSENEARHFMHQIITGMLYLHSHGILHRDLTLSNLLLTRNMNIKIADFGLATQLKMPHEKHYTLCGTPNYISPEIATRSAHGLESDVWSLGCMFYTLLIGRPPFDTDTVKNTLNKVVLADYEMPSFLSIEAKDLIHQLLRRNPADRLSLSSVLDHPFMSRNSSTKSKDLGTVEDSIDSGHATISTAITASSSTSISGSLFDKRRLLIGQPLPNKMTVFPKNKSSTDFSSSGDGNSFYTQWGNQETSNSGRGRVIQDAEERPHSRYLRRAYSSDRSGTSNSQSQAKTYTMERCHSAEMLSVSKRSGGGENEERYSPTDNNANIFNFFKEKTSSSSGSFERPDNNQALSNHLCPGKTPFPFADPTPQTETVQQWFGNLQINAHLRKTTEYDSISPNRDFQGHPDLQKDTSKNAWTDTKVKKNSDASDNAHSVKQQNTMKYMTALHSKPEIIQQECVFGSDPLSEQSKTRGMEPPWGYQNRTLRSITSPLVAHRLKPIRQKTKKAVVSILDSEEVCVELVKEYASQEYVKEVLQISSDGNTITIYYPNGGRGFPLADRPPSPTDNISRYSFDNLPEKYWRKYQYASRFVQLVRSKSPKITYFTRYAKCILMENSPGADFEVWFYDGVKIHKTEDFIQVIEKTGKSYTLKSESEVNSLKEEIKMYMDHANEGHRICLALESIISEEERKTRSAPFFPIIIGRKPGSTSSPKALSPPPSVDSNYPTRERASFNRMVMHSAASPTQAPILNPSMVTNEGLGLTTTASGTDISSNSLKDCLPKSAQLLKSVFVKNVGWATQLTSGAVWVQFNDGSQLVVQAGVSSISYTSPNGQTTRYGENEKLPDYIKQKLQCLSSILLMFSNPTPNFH
Chain of FES (human) (P07332 whole entry, looked up): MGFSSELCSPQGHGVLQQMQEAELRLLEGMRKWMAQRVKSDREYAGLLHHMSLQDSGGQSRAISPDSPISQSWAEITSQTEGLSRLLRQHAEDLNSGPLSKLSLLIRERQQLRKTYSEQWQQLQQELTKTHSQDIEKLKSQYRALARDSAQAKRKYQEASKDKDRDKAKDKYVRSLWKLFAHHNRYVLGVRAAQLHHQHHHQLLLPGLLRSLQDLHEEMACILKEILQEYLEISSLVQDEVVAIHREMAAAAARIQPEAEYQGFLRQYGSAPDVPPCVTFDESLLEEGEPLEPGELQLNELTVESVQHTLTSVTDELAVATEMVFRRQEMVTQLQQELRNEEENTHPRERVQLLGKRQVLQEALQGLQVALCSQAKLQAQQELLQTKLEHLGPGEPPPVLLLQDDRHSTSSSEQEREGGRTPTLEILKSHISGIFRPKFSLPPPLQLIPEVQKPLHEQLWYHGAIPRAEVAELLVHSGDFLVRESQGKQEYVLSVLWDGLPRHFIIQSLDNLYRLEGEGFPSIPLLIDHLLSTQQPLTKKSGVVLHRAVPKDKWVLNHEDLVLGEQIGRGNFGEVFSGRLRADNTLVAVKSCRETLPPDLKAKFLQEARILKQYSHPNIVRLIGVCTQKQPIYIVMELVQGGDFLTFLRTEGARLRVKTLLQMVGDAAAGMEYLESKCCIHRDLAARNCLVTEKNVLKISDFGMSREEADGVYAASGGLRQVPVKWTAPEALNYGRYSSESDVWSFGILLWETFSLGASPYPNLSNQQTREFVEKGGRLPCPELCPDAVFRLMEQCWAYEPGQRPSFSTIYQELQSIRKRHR
Chain of CDKL1 (human) (Q00532 whole entry, looked up): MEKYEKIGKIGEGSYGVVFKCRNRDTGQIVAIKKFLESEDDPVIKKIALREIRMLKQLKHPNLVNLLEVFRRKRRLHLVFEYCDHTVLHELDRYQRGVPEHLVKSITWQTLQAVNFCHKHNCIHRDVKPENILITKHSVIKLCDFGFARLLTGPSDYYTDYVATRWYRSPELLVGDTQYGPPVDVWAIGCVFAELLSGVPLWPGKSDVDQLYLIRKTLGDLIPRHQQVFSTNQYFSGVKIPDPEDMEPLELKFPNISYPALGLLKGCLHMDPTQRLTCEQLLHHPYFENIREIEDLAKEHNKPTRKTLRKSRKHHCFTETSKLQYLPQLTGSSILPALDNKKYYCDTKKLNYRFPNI
Chain of CDK17 (human) (Q00537 whole entry, looked up): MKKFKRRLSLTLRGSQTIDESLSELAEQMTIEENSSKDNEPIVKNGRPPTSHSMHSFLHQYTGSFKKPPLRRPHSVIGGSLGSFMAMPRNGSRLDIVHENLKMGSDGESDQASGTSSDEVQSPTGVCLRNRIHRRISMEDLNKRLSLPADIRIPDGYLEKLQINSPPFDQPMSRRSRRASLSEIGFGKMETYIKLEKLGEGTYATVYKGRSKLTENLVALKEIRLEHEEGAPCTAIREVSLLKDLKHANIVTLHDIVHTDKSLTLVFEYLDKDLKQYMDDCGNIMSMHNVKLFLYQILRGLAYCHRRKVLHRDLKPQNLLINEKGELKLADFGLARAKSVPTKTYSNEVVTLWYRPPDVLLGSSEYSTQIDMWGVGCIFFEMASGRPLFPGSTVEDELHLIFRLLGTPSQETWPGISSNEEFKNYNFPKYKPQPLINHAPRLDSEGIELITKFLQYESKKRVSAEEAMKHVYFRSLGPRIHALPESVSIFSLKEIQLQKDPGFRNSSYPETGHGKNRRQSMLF
Chain of KDR (human) (P35968 whole entry, looked up): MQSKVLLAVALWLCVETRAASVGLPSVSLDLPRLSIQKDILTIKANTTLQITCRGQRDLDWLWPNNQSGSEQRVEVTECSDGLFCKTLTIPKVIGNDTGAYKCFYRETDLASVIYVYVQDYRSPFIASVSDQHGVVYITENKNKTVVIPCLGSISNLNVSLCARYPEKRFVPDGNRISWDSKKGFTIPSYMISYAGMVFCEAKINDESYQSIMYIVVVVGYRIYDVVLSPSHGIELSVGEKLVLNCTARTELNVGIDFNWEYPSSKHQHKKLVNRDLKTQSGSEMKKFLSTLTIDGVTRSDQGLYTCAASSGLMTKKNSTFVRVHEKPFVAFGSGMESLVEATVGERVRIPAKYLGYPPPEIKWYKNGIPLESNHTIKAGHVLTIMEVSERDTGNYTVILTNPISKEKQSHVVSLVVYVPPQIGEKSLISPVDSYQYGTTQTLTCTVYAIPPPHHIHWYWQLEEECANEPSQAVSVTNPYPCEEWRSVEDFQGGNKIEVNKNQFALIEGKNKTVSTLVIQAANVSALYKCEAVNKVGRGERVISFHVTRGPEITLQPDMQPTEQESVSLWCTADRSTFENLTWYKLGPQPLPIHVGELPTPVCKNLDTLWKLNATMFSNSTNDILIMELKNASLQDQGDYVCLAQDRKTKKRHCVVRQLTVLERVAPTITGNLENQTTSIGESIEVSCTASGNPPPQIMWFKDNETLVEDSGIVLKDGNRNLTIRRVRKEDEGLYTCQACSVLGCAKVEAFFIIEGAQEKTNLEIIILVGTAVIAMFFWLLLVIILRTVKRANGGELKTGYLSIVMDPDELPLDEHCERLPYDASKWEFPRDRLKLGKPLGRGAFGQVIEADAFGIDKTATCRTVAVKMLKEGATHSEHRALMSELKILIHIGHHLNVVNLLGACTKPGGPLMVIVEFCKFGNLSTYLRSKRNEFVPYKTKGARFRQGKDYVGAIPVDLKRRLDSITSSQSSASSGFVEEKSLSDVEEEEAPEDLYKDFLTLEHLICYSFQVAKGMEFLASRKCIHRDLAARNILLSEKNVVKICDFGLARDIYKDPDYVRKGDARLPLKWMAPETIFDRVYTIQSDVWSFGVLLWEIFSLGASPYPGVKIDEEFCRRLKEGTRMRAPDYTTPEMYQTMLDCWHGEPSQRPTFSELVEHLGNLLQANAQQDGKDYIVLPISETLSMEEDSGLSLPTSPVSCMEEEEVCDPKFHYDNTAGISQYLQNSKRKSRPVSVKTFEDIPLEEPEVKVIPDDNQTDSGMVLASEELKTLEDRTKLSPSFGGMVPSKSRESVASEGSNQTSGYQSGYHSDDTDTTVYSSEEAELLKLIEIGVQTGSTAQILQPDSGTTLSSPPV
Chain of CRK2 (P.falciparum) (P61075 whole entry, looked up): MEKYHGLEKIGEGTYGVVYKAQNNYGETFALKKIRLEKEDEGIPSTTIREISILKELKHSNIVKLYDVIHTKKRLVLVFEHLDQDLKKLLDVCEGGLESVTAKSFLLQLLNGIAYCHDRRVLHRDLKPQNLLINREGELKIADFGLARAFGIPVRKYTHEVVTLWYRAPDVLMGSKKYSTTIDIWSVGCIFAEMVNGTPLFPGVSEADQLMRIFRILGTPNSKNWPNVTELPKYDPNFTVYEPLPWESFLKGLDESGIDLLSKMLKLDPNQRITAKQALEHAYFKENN

SMILES: N#C/C(=C1/Nc2ccccc2S1)c1ccnc(NCCc2cccnc2)n1
- kinase still bound, per cent of control (CDK17 (human)): 98%
- kinase still bound, per cent of control (PIM2 (human)): 20%
- kinase still bound, per cent of control (PAK1 (human)): 77%
- kinase still bound, per cent of control (EPHB4 (human)): 100%
- kinase still bound, per cent of control (SRPK2 (human)): 86%
- kinase still bound, per cent of control (FES (human)): 100%
- kinase still bound, per cent of control (SGK3 (human)): 100%
- kinase still bound, per cent of control (NTRK2 (human)): 56%
- kinase still bound, per cent of control (ABL2 (human)): 100%
- kinase still bound, per cent of control (FGFR3 (human)): 92%
- kinase still bound, per cent of control (CDC42BPG (human)): 89%
- kinase still bound, per cent of control (PRKCI (human)): 80%
- kinase still bound, per cent of control (SGK110 (human)): 100%
- kinase still bound, per cent of control (EPHA2 (human)): 80%
- kinase still bound, per cent of control (MAP2K1 (human)): 9.6%
- kinase still bound, per cent of control (PDGFRB (human)): 64%
- kinase still bound, per cent of control (CDK8 (human)): 100%
- kinase still bound, per cent of control (CDK13 (human)): 61%
- kinase still bound, per cent of control (EPHA1 (human)): 100%
- kinase still bound, per cent of control (CPK1 (P.falciparum)): 4.2%
- kinase still bound, per cent of control (STK17B (human)): 100%
- kinase still bound, per cent of control (IKBKB (human)): 68%
- kinase still bound, per cent of control (IGF1R (human)): 100%
- kinase still bound, per cent of control (CRK2 (P.falciparum)): 100%
- kinase still bound, per cent of control (KDR (human)): 100%
- kinase still bound, per cent of control (CSK (human)): 88%
- kinase still bound, per cent of control (CDKL1 (human)): 45%
- kinase still bound, per cent of control (PIM3 (human)): 2.3%
- kinase still bound, per cent of control (CDK9 (human)): 60%
- kinase still bound, per cent of control (CDK18 (human)): 92%
- kinase still bound, per cent of control (EPHA4 (human)): 100%
- kinase still bound, per cent of control (ADCK4 (human)): 45%
- kinase still bound, per cent of control (BMPR2 (human)): 88%
- kinase still bound, per cent of control (ITK (human)): 100%
- kinase still bound, per cent of control (STK33 (human)): 86%
- kinase still bound, per cent of control (LIMK1 (human)): 78%
- kinase still bound, per cent of control (PLK4 (human)): 68%
- kinase still bound, per cent of control [1]: 100%
- kinase still bound, per cent of control (PRKACB (human)): 100%
- kinase still bound, per cent of control (TEC (human)): 92%
- kinase still bound, per cent of control (STK3 (human)): 59%

SMILES: C=CC(=O)Nc1ccc(C(=O)c2sc(Nc3ccc(N4CCN(C)CC4)cc3OC)nc2N)cc1
- kinase still bound, per cent of control (CDK17 (human)): 78%
- kinase still bound, per cent of control (PIM2 (human)): 100%
- kinase still bound, per cent of control (PAK1 (human)): 73%
- kinase still bound, per cent of control (EPHB4 (human)): 100%
- kinase still bound, per cent of control (SRPK2 (human)): 95%
- kinase still bound, per cent of control (FES (human)): 52%
- kinase still bound, per cent of control (SGK3 (human)): 83%
- kinase still bound, per cent of control (NTRK2 (human)): 100%
- kinase still bound, per cent of control (ABL2 (human)): 100%
- kinase still bound, per cent of control (FGFR3 (human)): 78%
- kinase still bound, per cent of control (CDC42BPG (human)): 93%
- kinase still bound, per cent of control (PRKCI (human)): 26%
- kinase still bound, per cent of control (SGK110 (human)): 100%
- kinase still bound, per cent of control (EPHA2 (human)): 96%
- kinase still bound, per cent of control (MAP2K1 (human)): 100%
- kinase still bound, per cent of control (PDGFRB (human)): 54%
- kinase still bound, per cent of control (CDK8 (human)): 100%
- kinase still bound, per cent of control (CDK13 (human)): 100%
- kinase still bound, per cent of control (EPHA1 (human)): 100%
- kinase still bound, per cent of control (CPK1 (P.falciparum)): 74%
- kinase still bound, per cent of control (STK17B (human)): 100%
- kinase still bound, per cent of control (IKBKB (human)): 85%
- kinase still bound, per cent of control (IGF1R (human)): 86%
- kinase still bound, per cent of control (CRK2 (P.falciparum)): 92%
- kinase still bound, per cent of control (KDR (human)): 100%
- kinase still bound, per cent of control (CSK (human)): 87%
- kinase still bound, per cent of control (CDKL1 (human)): 100%
- kinase still bound, per cent of control (PIM3 (human)): 87%
- kinase still bound, per cent of control (CDK9 (human)): 85%
- kinase still bound, per cent of control (CDK18 (human)): 100%
- kinase still bound, per cent of control (EPHA4 (human)): 96%
- kinase still bound, per cent of control (ADCK4 (human)): 45%
- kinase still bound, per cent of control (BMPR2 (human)): 100%
- kinase still bound, per cent of control (ITK (human)): 74%
- kinase still bound, per cent of control (STK33 (human)): 39%
- kinase still bound, per cent of control (LIMK1 (human)): 79%
- kinase still bound, per cent of control (PLK4 (human)): 43%
- kinase still bound, per cent of control [1]: 77%
- kinase still bound, per cent of control (PRKACB (human)): 92%
- kinase still bound, per cent of control (TEC (human)): 98%
- kinase still bound, per cent of control (STK3 (human)): 98%
